Reference: patent US10568947B2, “Treatment of cancer using a CLL-1 chimeric antigen receptor” (Novartis AG, priority 2014, dated 2020)
“Also recorded” adds a separate entry of the source.

How the values were obtained:
primary AML blasts = assay: chemotherapy followed by CLL1-CART cells in primary AML xenografts; assay type: in vivo, NSG-S mice; conditions: two weeks after cytarabine 60 mg/kg i.p. daily days 35-39
Experimental: NSG mice that are additionally transgenic for stem cell factor, GM-CSF and IL-3 (NSG-S) were injected with primary AML blasts (3×10^6 via tail vain injection, day 0). After 4-6 weeks, peripheral blood (PB) was collected to confirm engraftment, which was defined as the presence of >1% circulating leukemic cells (live human CD45dim cells). AML xenografts were then treated with cytarabine (Ara-C, 60 mg/kg by intra-peritoneal injection, daily between days 35-39). Peripheral blood counts were monitored and then these xenografts were randomized to receive CLL1 directed CART cells or control untransduced T cells (1×10^5 I.V.) on day 55. Following that, serial retro-orbital bleedings were performed and absolute leukemic blast count was calculated as a measure of disease burden and the xenografts were followed up for survival.

Nalm-6 = assay: huCART19 proliferation in co-culture with RAD001; assay type: cell-based, human; conditions: 4 day co-culture with Nalm-6; 0.0032 and 0.016 nM RAD001
Excerpt: A humanized, anti-human CD19 CAR (huCART19) lentiviral transfer vector was used to produce the genomic material packaged into VSVg pseudotyped lentiviral particles. The amino acid and nucleotide sequence of the humanized anti-human CD19 CAR (huCART19) is CAR 1, ID 104875 described in PCT publication, WO2014/153270, filed Mar. 15, 2014, and is designated SEQ ID NOs. 85 and 31 therein.
Lentiviral transfer vector DNA is mixed with the three packaging components VSVg env, gag/pol and rev in combination with lipofectamine reagent to transfect Lenti-X 293T cells. Medium is changed after 24 h and 30 h thereafter, the virus-containing media is collected, filtered and stored at −80° C. CARTs are generated by transduction of fresh or frozen naïve T cells obtained by negative magnetic selection of healthy donor blood or leukopak. […] The percentage of cells transduced (expressing the CARs on the cell surface) and the level of CAR expression (relative fluorescence intensity, Geo Mean) are determined by flow cytometric analysis between days 7 and 9. […]
To evaluate the functionality of CARTs, the T cells are thawed and counted, and viability is assessed by Cellometer. […]
For measuring the proliferation of CARTs, T cells are cultured with target cells at a ratio of 1:1. […] The number of T cells is assessed by flow cytometry using counting beads as reference.

NALM6-luc tumors = assay: NALM6-luc tumor growth with daily RAD001 dosing; assay type: in vivo, NSG mice; conditions: daily oral RAD001 alone, 0.3, 1, 3, 10 mg/kg
Experimental: The NALM6 human acute lymphoblastic leukemia (ALL) cell line was developed from the peripheral blood of a patient with relapsed ALL. The cells were then tagged with firefly luciferase. These suspension cells grow in RPMI supplemented with 10% heat inactivated fetal bovine serum.
6 week old NSG (NOD.Cg-Prkdc^scidIl2rg^tm1Wjl/SzJ) mice were received from the Jackson Laboratory (stock number 005557).
(§1) NALM6-luc cells were grown and expanded in vitro in RPMI supplemented with 10% heat inactivated fetal bovine serum. The cells were then transferred to a 15 ml conical tube and washed twice with cold sterile PBS. NALM6-luc cells were then counted and resuspended at a concentration of 10×10^6 cells per milliliter of PBS. The cells were placed on ice and immediately (within one hour) implanted in the mice. NALM6-luc cells were injected intravenously via the tail vein in a 100 μl volume, for a total of 1×10^6 cells per mouse.
(§2) A concentrated micro-emulsion of 50 mg equal to 1 mg RAD001 was formulated and then resuspended in D5W (dextrose 5% in water) at the time of dosing. Mice were orally dosed daily (via oral gavage) with 200 μl of the desired doses of RAD001.

[1] = RAD001 pharmacokinetics in blood of tumor bearing mice; assay type: in vivo, NSG mice
Experimental: as §2
Mice were dosed daily with RAD001 starting 7 days post tumor implantation. Dosing groups were as follows: 0.3 mg/kg, 1 mg/kg, 3 mg/kg, and 10 mg/kg. Mice were bled on days 0 and 14 following the first and last dose of RAD001, at the following time points for PK analysis: 15 minutes, 30 minutes, 1 hour, 2 hours, 4 hours, 8 hours, 12 hours, and 24 hours.

[2] = in vivo proliferation of huCAR19 CAR T cells with RAD001; conditions: NALM6-luc NSG mice, daily oral RAD001, lowest doses (0.003 mg/kg)
Experimental: as §1
Mice were administered 5×10^6 CAR T cells 7 days after tumor implantation. Cells were partially thawed in a 37 degree Celsius water bath and then completely thawed by the addition of 1 ml of cold sterile PBS to the tube containing the cells. The thawed cells were transferred to a 15 ml falcon tube and adjusted to a final volume of 10 mls with PBS. The cells were washed twice at 1000 rpm for 10 minutes each time and then counted on a hemocytometer. T cells were then resuspended at a concentration of 50×10^6 CAR T cells per ml of cold PBS and kept on ice until the mice were dosed. […]
Based on these doses, huCAR19 CAR T cells were dosed with and without RAD001 to determine the proliferative ability of these cells. […] Mice were monitored via FACS for T cell expansion.

| concentration of RAD001 (blood) ([1]; 24 hours after the final dose) | concentration at 24 h ([1]; NSG, mouse, blood, oral, 24 hours after dosing, lowest dose 0.3 mg/kg, day 0 and day 14, read-out: RAD001 concentrations in the blood) | stability in the blood of tumor bearing mice ([1]; daily oral dosing, day 0 and day 14 PK) | SMILES | mean fluorescence intensity (MFI) of CLL1 in leukemic cells (live huCD45dim) (primary AML blasts) | proliferation of huCART19 with RAD001 versus without (Nalm-6) | growth of NALM6-luc tumors (NALM6-luc tumors) | proliferation of huCAR19 CAR T cells in vivo [2] |
| --- | --- | --- | --- | --- | --- | --- | --- |
| – | – | – | Nc1ccn([C@@H]2O[C@H](CO)[C@@H](O)[C@@H]2O)c(=O)n1 [cytarabine] | significant increase | – | – | – |
| above 10 nM | > 10 nM | fairly stable | CO[C@H]1C[C@@H]2CC[C@@H](C)[C@@](O)(O2)C(=O)C(=O)N2CCCC[C@H]2C(=O)O[C@H]([C@H](C)C[C@@H]2CC[C@@H](OCCO)[C@H](OC)C2)CC(=O)[C@H](C)/C=C(\C)[C@@H](O)[C@@H](OC)C(=O)[C@H](C)C[C@H](C)/C=C/C=C/C=C/1C [RAD001, (1R,9S,12S,15R,16E,18R,19R,21R,23S,24E,26E,28E,30S,32S,35R)-1,18-dihydroxy-12-{(1R)-2-[(1S,3R,4R)-4-(2-hydroxyethoxy)-3-methoxycyclohexyl]-1-methylethyl}-19,30-dimethoxy-15,17,21,23,29,35-hexamethyl-11,36-dioxa-4-aza-tricyclo[30.3.1.04,9]hexatriaconta-16,24,26,28-tetraene-2,3,10,14,20-pentaone] | – | proliferation was higher than observed without the addition of RAD001 | did not have an impact | enhanced proliferation; also recorded: enhancement in CAR T cell proliferation |
